What was measured:
[1] = target: Carboxylic ester hydrolase (Equus caballus, UniProt Q9N1N9); test: Cholinesterase Inhibition Assay; details: pH 8
Method: (§1) The target compounds were dissolved in a mixture of 1 mL DMSO and 9 mL methanol and diluted in 0.1 M KH2PO4/K2HPO4 buffer (pH 8.0) to obtain final concentrations.For each compound, five different concentrations were tested to obtain the range of 20-80% enzyme inhibition. The assay medium was composed of 3 mL of phosphatebuffer (0.1 M, pH 8.0), 100 µL of DTNB (0.01 M), 100 µL of enzyme solution (AChE or BuChE, 2.5 unit/mL), and 50 µL of test compound.

[2] = target: Acetylcholinesterase (Electrophorus electricus, UniProt O42275); test: Cholinesterase Inhibition Assay; details: pH 8
Chain of Acetylcholinesterase (O42275 whole entry): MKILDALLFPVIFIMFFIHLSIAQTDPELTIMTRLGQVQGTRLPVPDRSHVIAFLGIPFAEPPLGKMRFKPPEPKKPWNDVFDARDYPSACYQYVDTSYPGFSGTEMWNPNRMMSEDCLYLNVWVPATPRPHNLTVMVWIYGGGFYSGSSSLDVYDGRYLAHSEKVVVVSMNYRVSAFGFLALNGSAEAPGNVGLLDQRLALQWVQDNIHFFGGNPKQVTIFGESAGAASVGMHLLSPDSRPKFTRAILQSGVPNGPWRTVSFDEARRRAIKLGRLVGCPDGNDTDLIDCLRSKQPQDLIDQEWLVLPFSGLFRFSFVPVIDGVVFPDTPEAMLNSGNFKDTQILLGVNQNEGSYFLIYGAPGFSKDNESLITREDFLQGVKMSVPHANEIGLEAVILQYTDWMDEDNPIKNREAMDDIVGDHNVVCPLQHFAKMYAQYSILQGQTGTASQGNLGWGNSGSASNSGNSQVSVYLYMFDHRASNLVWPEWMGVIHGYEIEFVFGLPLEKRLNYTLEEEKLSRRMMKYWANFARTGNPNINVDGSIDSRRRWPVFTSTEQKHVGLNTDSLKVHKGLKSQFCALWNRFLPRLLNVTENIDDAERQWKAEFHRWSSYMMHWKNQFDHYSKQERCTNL
Method: as §1

Chain of Carboxylic ester hydrolase (Q9N1N9 whole entry): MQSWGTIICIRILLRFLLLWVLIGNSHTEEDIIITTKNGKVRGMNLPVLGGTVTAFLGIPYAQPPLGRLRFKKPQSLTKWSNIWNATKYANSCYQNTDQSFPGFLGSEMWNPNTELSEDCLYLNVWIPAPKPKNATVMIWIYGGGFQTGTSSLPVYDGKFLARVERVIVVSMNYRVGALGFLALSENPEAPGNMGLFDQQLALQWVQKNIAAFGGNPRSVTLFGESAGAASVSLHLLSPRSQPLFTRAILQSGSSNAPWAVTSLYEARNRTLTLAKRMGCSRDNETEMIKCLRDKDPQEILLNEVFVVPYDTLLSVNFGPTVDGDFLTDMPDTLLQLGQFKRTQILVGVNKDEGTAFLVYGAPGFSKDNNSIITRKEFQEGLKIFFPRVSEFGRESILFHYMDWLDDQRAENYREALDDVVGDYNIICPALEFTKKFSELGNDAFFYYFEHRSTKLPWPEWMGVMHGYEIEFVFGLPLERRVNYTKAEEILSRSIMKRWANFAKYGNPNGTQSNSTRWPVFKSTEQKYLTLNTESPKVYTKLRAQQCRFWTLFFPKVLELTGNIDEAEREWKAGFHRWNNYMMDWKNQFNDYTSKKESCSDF

`O=C(COc1cc(=O)oc2ccccc12)OCc1cn(Cc2ccccc2Br)nn1` [(1-(2-Bromobenzyl)-1H-1,2,3-triazol-4-yl)methyl 2-(2-oxo-2H-chromen-4-yloxy)acetate (8a)] showed an IC50 [1] of 43 µM and an IC50 [2] of 2.14 µM.

For `O=C(COc1cc(=O)oc2ccccc12)OCc1cn(Cc2ccccc2Cl)nn1` [(1-(2-Chlorobenzyl)-1H-1,2,3-triazol-4-yl)methyl 2-(2-oxo-2H-chromen-4-yloxy)acetate (8k)], the IC50 [1] was greater than 50 µM and the IC50 [2] was 0.18 µM.

With `O=C(COc1cc(=O)oc2ccccc12)OCc1cn(Cc2ccccc2F)nn1` [(1-(2-Fluorobenzyl)-1H-1,2,3-triazol-4-yl)methyl 2-(2-oxo-2H-chromen-4-yloxy)acetate (8h)] the IC50 [1] was greater than 50 µM and the IC50 [2] was 5.7 µM.

`Cc1ccccc1Cn1cc(COC(=O)COc2cc(=O)oc3ccccc23)nn1` [(1-(2-Methylbenzyl)-1H-1,2,3-triazol-4-yl)methyl 2-(2-oxo-2H-chromen-4-yloxy)acetate (8f)] showed an IC50 [1] greater than 50 µM and an IC50 [2] of 1.79 µM.

`O=C(COc1cc(=O)oc2ccccc12)OCc1cn(Cc2ccccc2[N+](=O)[O-])nn1` [(1-(2-Nitrobenzyl)-1H-1,2,3-triazol-4-yl)methyl 2-(2-oxo-2H-chromen-4-yloxy)acetate (8n)] was tested, and the IC50 [1] was greater than 50 µM and the IC50 [2] was 0.53 µM.

`O=C(COc1cc(=O)oc2ccccc12)OCc1cn(Cc2cccc(Br)c2)nn1` [(1-(3-Bromobenzyl)-1H-1,2,3-triazol-4-yl)methyl 2-(2-oxo-2H-chromen-4-yloxy)acetate (8b)] gave an IC50 [1] greater than 50 µM and an IC50 [2] of 1.79 µM.

For `O=C(COc1cc(=O)oc2ccccc12)OCc1cn(Cc2cccc(Cl)c2)nn1` [(1-(3-Chlorobenzyl)-1H-1,2,3-triazol-4-yl)methyl 2-((2-oxo-2H-chromen-4-yl)oxy)acetate (8l)], the IC50 [1] was greater than 50 µM and the IC50 [2] was 0.34 µM.

For `O=C(COc1cc(=O)oc2ccccc12)OCc1cn(Cc2cccc(F)c2)nn1` [(1-(3-Fluorobenzyl)-1H-1,2,3-triazol-4-yl)methyl 2-(2-oxo-2H-chromen-4-yloxy)acetate (8i)], the IC50 [1] was greater than 50 µM and the IC50 [2] was 1.64 µM.

`COc1cccc(Cn2cc(COC(=O)COc3cc(=O)oc4ccccc34)nn2)c1` [(1-(3-Methoxybenzyl)-1H-1,2,3-triazol-4-yl)methyl 2-(2-oxo-2H-chromen-4-yloxy)acetate (8d)] gave an IC50 [1] greater than 50 µM and an IC50 [2] of 7 µM.

Molecule `O=C(COc1cc(=O)oc2ccccc12)OCc1cn(Cc2ccc(Br)cc2)nn1` [(1-(4-Bromobenzyl)-1H-1,2,3-triazol-4-yl)methyl 2-(2-oxo-2H-chromen-4-yloxy)acetate (8c)] has an IC50 [1] greater than 50 µM and an IC50 [2] of 87.9 µM.

`O=C(COc1cc(=O)oc2ccccc12)OCc1cn(Cc2ccc(Cl)cc2)nn1` [(1-(4-Chlorobenzyl)-1H-1,2,3-triazol-4-yl)methyl 2-(2-oxo-2H-chromen-4-yloxy)acetate (8m)] gave an IC50 [1] greater than 50 µM and an IC50 [2] of 13 µM.

With `O=C(COc1cc(=O)oc2ccccc12)OCc1cn(Cc2ccc(F)cc2)nn1` [(1-(4-Fluorobenzyl)-1H-1,2,3-triazol-4-yl)methyl 2-(2-oxo-2H-chromen-4-yloxy)acetate (8j)] the IC50 [1] was greater than 50 µM and the IC50 [2] was 2.54 µM.

With `COc1ccc(Cn2cc(COC(=O)COc3cc(=O)oc4ccccc34)nn2)cc1` [(1-(4-Methoxybenzyl)-1H-1,2,3-triazol-4-yl)methyl 2-(2-oxo-2H-chromen-4-yloxy)acetate (8e)] the IC50 [1] was greater than 50 µM and the IC50 [2] was 104 µM.

With `Cc1ccc(Cn2cc(COC(=O)COc3cc(=O)oc4ccccc34)nn2)cc1` [(1-(4-Methylbenzyl)-1H-1,2,3-triazol-4-yl)methyl 2-(2-oxo-2H-chromen-4-yloxy)acetate (8g)] the IC50 [1] was greater than 50 µM and the IC50 [2] was 90 µM.

`O=C(COc1cc(=O)oc2ccccc12)OCc1cn(Cc2ccc([N+](=O)[O-])cc2)nn1` [(1-(4-Nitrobenzyl)-1H-1,2,3-triazol-4-yl)methyl 2-(2-oxo-2H-chromen-4-yloxy)acetate (8o)] showed an IC50 [1] greater than 50 µM and an IC50 [2] of 137 µM.

`O=C(COc1cc(=O)oc2ccccc12)OCc1cn(Cc2ccccc2)nn1` [(1-Benzyl-1H-1,2,3-triazol-4-yl)methyl 2-((2-oxo-2H-chromen-4-yl)oxy)acetate (8p)] was tested, and the IC50 [1] was greater than 50 µM and the IC50 [2] was 15.8 µM.

Source: BindingDB's records for doi:10.1111/cbdd.12588 (Tehran University of Medical Sciences, 2015)
